Results from US11827628B2, “Compositions and methods for inhibition of the JAK pathway” (Rigel Pharmaceuticals, Inc., priority 2005, dated 2023).
Counter-ions that a name gives are not always drawn. Like-named read-outs stand apart in the source and are kept apart here.

What was measured:
[1] = test system: up-regulation of ICAM-1 (CD54) by IFNγ in U937 human monocytic cells; assay: U937 IFNγ ICAM1 FACS Assay; format: cell-based; details: ICAM-1 expression by FACS, read-out: IC50, Example 44
Outline: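 Readout was the geometric-mean APC anti-ICAM-1 signal by FACS on live U937 monocytic cells, with % live cells also recorded. Cells were exposed to compounds (8 points, 3-fold dilutions, duplicates) for 30 min at 37 °C before 18–24 h of IFNγ stimulation. EC50 values were computed from the dose curve.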

[2] = test system: IL-4 stimulated expression of CD23 in human Ramos B cells (JAK-1 and JAK-3); assay: Assay for Ramos B-Cell Line Stimulated with IL-4 (CD23 upregulation, FACS); format: cell-based; details: read-out: IC50, Example 41
Outline: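 Read-out: anti-CD23-PE flow cytometry on Ramos B cells, giving IC50. Cells (5×10^4 per point, RPMI + 5% serum) get compound or DMSO for 1 h at 37 °C, then IL-4 50 units/mL final for 20-24 h.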

[3] = Homo sapiens, U-937, U937 cells stimulated with IFNγ
[4] = Homo sapiens, Ramos, Ramos B-cell line stimulated with IL-4, CD23 expression by FACS
[5] = U937 cells stimulated with IFNγ
[6] = Ramos B cells stimulated with IL-4, CD23 expression by FACS

IC50 [1, 3] [nM]	IC50 [2, 4] [nM]	IC50 [1, 5] [nM]	IC50 [2, 6] [nM]	SMILES
1010	135			CNC(=O)OCCc1ccc(Nc2nc(Nc3cccc(S(N)(=O)=O)c3)ncc2F)cc1 [III-60, N2-(3-Aminosulfonylphenyl)-5-fluoro-N4-{4-[2-(methylaminocarbonyloxy)ethyl]phenyl}-2,4-pyrimidinediamine]
3930	358			Cc1ccc(Nc2ncc(C)c(Nc3ccc(OCC(N)=O)cc3)n2)cc1S(N)(=O)=O [Compound I-110, N4-(4-Aminocarbonylmethoxyphenyl)-N2-(3-aminosulfonyl-4-methylphenyl)-5-methyl-2,4-pyrimidinediamine]
6390	111			Cc1ccc(Nc2ncc(F)c(Nc3ccc(OC4CCN(C)CC4)c(C(F)(F)F)c3)n2)cc1S(N)(=O)=O [II-6, N2-(3-Aminosulfonyl-4-methylphenyl)-5-fluoro-N4-{4-[(1-methylpiperidin-4-yl)oxy]-3-trifluoromethylphenyl}-2,4-pyrimidinediamine]
9470	461			Cc1cnc(Nc2cccc(S(N)(=O)=O)c2)nc1Nc1ccc(OCC(=O)N(C)C)c(F)c1 [Compound I-138, N2-(3-Aminosulfonylphenyl)-N4-(4-dimethylaminocarbonylmethoxy-3-fluorophenyl)-5-methyl-2,4-pyrimidinediamine]
2990	262			CN(C)C(=O)COc1ccc(Nc2nc(Nc3ccc(S(N)(=O)=O)cc3)ncc2F)cc1Cl [Compound I-131, N2-(4-Aminosulfonylphenyl)-N4-(3-chloro-4-dimethylaminocarbonylmethoxyphenyl)-5-fluoro-2,4-pyrimidinediamine]
		2420	151	CNS(=O)(=O)c1cc(Nc2ncc(F)c(Nc3cccc(-c4cnco4)c3)n2)ccc1C [IV-4, 5-Fluoro-N2-[3-(N-methylaminosulfony)-4-methylphenyl]-N4-[3-(1,3-oxazol-5-yl)phenyl]-2,4-pyrimidinediamine]
		1910	162	NS(=O)(=O)c1cccc(Nc2ncc(F)c(Nc3ccc(Cn4cncn4)cc3)n2)c1 [III-100, N2-(3-Aminosulfonylphenyl)-5-fluoro-N4-{4-[1-(1,2,4-thazolyl)methyl]phenyl}-2,4-pyrimidinediamine]
11000	295			NC(=O)COc1ccc(Nc2nc(Nc3cccc(S(N)(=O)=O)c3)ncc2F)cc1Cl [Compound I-98, N4-(4-Aminocarbonylmethoxy-3-chlorophenyl)-N2-(3-aminosulfonylphenyl)-5-fluoro-2,4-pyrimidinediamine]
759	120			COc1cc(Nc2nc(Nc3ccc(C)c(S(N)(=O)=O)c3)ncc2F)ccc1OCC#N [Compound I-47, N2-(3-Aminosulfonyl-4-methylphenyl)-N4-(4-cyanomethoxy-3-methoxyphenyl)-5-fluoro-2,4-pyrimidinediamine]
		1190	174	NS(=O)(=O)c1cccc(Nc2ncc(F)c(Nc3ccc(Cc4ccncc4)cc3)n2)c1 [III-129, N2-(3-Aminosulfonylphenyl)-5-fluoro-N4-[4-(4-pyridylmethyl)phenyl]-2,4-pyrimidinediamine Methanesulfonic Acid Salt]
55.6	72.3			Cc1cc(Nc2nc(Nc3ccc(C)c(S(N)(=O)=O)c3)ncc2F)ccc1CCC#N [III-19, N2-(3-Aminosulfonyl-4-methylphenyl)-N4-[4-(2-cyanoethyl)-3-methylphenyl]-5-fluoro-2,4-pyrimidinediamine]
3240	178			Cc1cnc(Nc2ccc(S(N)(=O)=O)cc2)nc1Nc1ccc(OCC(=O)N(C)C)c(Cl)c1 [Compound I-134, N2-(4-Aminosulfonylphenyl)-N4-(3-chloro-4-dimethylaminocarbonylmethoxyphenyl)-5-methyl-2,4-pyrimidinediamine]
1380	297			C=CCNC(=O)COc1ccc(Nc2nc(Nc3cccc(S(N)(=O)=O)c3)ncc2F)cc1 [Compound I-158, N4-(4-Allylaminocarbonylmethoxyphenyl)-N2-(3-aminosulfonylphenyl)-5-fluoro-2,4-pyrimidinediamine]
681	177			Cc1ccc(Nc2ncc(F)c(NCCc3ccc(-c4ccncc4)cc3)n2)cc1S(N)(=O)=O [III-77, N2-(3-Aminosulfonyl-4-methylphenyl)-5-fluoro-N4-[4-(4-pyridinyl)phenethyl]-2,4-pyrimidinediamine]
3930	256			Cc1ccc(Nc2nc(Nc3ccc(C)c(S(N)(=O)=O)c3)ncc2F)cc1OCCN1CCOCC1 [Compound I-204, N2-(3-Aminosulfonyl-4-methylphenyl)-5-fluoro-N4-[4-methyl-3-(2-morpholinoethyloxy)phenyl]2,4-pyrimidinediamine]
68700	152			N#CCOc1ccc(Nc2nc(Nc3ccc(S(N)(=O)=O)cc3)ncc2F)cc1-c1ccn(CC#N)n1 [Compound I-52, N2-(4-Aminosulfonylphenyl)-N4-[4-cyanomethoxy-3-(1-cyanomethylpyrazol-3-yl)phenyl]-5-fluoro-2,4-pyrimidinediamine]
1640	132			Cc1ccc(Nc2ncc(C)c(Nc3ccc(OCC(=O)N(C)C)c(Cl)c3)n2)cc1S(N)(=O)=O [Compound I-136, N2-(3-Aminosulfonyl-4-methylphenyl)-N4-(3-chloro-4-dimethylaminocarbonylmethoxyphenyl)-5-methyl-2,4-pyrimidinediamine]
		1240	112	CNS(=O)(=O)c1cc(Nc2ncc(F)c(Nc3ccc(-c4cnco4)cc3)n2)ccc1C [IV-7, 5-Fluoro-N2-[3-(N-methylaminosulfony)-4-methylphenyl]-N4-[4-(1,3-oxazol-5-yl)phenyl]-2,4-pyrimidinediamine]
1130	97.7			Cc1ccc(Nc2ncc(F)c(Nc3ccc(CCOC(N)=O)cc3)n2)cc1S(N)(=O)=O [III-53, N4-{4-[2-(Aminocarbonyloxy)ethyl]phenyl}-N2-(3-aminosulfonyl-4-methylphenyl)-5-fluoro-2,4-pyrimidinediamine]
2950	141			NS(=O)(=O)c1cccc(Nc2ncc(F)c(NCCc3ccc(-n4ccnc4)cc3)n2)c1 [III-87, N2-(3-Aminosulfonylphenyl)-5-fluoro-N4-[4-(1-imidazolyl)phenethyl]-2,4-pyrimidinediamine]
